Target: T1, Myosin-7 (Bos taurus, UniProt Q9BE39)
T1 construct: gene MYH7
Assay: Myofibril Assays
Experimental: To evaluate the effect of compounds on the ATPase activity of full-length cardiac myosin in the context of the native sarcomere, skinned myofibril assays were performed. Bovine cardiac myofibrils were obtained by homogenizing bovine cardiac left ventricular tissue in the presence of a detergent such as triton X-100. Such treatment removes membranes and a majority of the soluble cytoplasmic proteins but leaves intact the cardiac sarcomeric acto-myosin apparatus. Myofibril preparations retain the ability to hydrolyze ATP in an Ca2+ regulated manner. […] Small molecule agents were assessed for their ability to inhibit the steady-state ATPase activity of bovine cardiac myofibrils using pyruvate kinase and lactate dehydrogenase (PK/LDH)-coupled enzyme system. This assay regenerates myosin-produced ADP into ATP by oxidizing NADH, producing an absorbance change at 340 nm.

T1 sequence (Q9BE39 whole entry, looked up): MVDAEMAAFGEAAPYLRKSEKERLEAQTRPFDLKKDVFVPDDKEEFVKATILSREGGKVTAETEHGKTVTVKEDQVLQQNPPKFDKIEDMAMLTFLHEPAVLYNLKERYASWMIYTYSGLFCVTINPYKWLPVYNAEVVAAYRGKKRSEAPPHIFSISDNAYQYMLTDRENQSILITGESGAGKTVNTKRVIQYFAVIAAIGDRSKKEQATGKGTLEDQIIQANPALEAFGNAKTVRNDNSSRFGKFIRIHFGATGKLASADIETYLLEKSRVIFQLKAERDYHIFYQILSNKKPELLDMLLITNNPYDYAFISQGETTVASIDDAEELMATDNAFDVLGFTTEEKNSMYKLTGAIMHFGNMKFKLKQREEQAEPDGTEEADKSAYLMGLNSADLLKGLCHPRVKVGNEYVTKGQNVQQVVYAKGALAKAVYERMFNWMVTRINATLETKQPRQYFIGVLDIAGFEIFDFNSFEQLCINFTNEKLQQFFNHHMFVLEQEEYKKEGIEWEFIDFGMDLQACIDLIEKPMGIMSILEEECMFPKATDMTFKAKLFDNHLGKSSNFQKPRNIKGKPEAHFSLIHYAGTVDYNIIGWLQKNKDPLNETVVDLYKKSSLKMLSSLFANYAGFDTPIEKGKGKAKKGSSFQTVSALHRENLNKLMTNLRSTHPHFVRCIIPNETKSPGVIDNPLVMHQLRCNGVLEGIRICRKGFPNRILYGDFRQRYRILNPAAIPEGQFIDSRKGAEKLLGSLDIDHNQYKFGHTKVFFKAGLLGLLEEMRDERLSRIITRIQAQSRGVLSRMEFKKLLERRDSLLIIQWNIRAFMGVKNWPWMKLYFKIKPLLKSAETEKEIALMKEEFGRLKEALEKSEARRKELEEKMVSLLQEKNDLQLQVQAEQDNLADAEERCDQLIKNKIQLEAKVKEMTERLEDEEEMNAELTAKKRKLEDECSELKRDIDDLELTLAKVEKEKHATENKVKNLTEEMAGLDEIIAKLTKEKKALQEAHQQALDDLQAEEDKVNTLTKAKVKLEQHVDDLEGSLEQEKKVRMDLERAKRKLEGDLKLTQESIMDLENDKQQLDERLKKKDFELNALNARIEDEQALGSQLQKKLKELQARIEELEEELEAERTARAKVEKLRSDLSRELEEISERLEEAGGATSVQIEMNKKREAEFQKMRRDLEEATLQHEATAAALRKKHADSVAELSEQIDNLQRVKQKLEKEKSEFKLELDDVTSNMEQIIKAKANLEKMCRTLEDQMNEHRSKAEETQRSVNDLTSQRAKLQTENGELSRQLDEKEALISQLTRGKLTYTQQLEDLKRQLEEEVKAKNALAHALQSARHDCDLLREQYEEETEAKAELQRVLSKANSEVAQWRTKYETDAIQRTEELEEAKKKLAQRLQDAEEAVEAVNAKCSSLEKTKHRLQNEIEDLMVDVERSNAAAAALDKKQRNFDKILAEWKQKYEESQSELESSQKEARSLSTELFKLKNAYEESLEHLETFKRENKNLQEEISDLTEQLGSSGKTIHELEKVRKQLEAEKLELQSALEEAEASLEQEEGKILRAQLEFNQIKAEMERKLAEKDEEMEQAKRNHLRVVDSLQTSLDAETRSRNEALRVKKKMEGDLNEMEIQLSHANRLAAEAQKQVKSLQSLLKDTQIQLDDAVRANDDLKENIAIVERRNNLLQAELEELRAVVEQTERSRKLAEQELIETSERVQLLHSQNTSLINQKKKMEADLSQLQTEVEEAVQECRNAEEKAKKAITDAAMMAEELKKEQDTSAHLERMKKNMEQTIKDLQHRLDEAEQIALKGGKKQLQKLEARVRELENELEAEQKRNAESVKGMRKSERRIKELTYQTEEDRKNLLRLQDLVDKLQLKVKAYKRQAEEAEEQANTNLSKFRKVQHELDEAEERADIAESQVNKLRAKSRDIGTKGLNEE

SMILES	IC50
Cn1cc(C(=O)N[C@@H]2CCc3cc(-c4noc(C5CCC5)n4)ccc32)cn1 [US12065436, Compound 411]	3.2 µM
COCc1nc(-c2ccc3c(c2)CC[C@H]3NC(=O)c2cnc(C)n2C)no1 [US12065436, Compound 691]	5.8 µM
O=C(N[C@@H]1CCc2cc(-c3noc(C4CC4)n3)ccc21)C1CC1 [US12065436, Compound 318]	9.3 µM
Cc1cc(C(=O)NC2CCc3cc(-c4noc(C(F)F)n4)ccc32)on1 (stereo not given) [US12065436, Compound 102]	5.8 µM
Cc1cnoc1C(=O)N[C@@H]1CCc2cc(-c3noc(C(F)F)n3)ccc21 [US12065436, Compound 93]	0.9 µM
CCc1cc(-c2ccc3c(c2)CC[C@H]3NC(=O)OC)no1 [US12065436, Compound 345]	0.8 µM

Continued by falling IC50, values first:

IC50	SMILES
39.2 µM	CCc1nc(-c2ccc3c(c2)CC[C@H]3NC(=O)c2cnn(C3CN(C(=O)OC)C3)c2)no1 [US12065436, Compound 480]
14.9 µM	Cc1nc(-c2ccc3c(c2)CCC3NC(=O)Nc2cnccn2)no1 (stereo not given) [US12065436, Compound 86]
7.1 µM	CCc1nc(-c2ccc3c(c2)CC[C@H]3NC(=O)c2cnn(C3CN(C(=O)OC(C)(C)C)C3)c2)no1 [US12065436, Compound 471]
2.2 µM	Cc1cnoc1C(=O)NC1CCc2cc(-c3noc(C(F)F)n3)ccc21 (stereo not given) [US12065436, Compound 103]
